Patent US12668763B2, “Co-culturing device, motor neuron culturing device, multi-well plate, fabrication method of in vitro evaluation model of neuromuscular disease, and screening method of therapeutic agent against neuromuscular disease” (priority 2019, dated 2026)

System: motor neuron / skeletal muscle tissue (neuromuscular junction) of the evaluation model
Assay: Contraction of skeletal muscle tissue caused by stimulation of motor neurons in the evaluation model (device a), moving-image analysis
Format: cell-based, human

| Compound | contraction of a skeletal muscle tissue after addition of the drug |
| --- | --- |
| N[C@@H](CCC(=O)O)C(=O)O [glutamic acid, Glutamic acid] | causes contraction of a skeletal muscle tissue |
| NC1=N[C@H](O)[C@H]2[C@H]3O[C@]4(O)O[C@@H]([C@@H](O)[C@@]2(N1)[C@@H]4O)[C@]3(O)CO [tetrodotoxin] | stops contraction of a skeletal muscle tissue |
